We go through one molecule from US20240287463A1, “INDUCIBLE TISSUE CONSTRUCTS AND USES THEREOF” (Massachusetts Institute of Technology, priority 2020, published 2024).

Experiment [1] concerns iCasp9-GFP J2s. The experiment is described as follows: Annexin V / SYTOX apoptosis flow cytometry. The experiment is classed as cell-based. The following applies: within the first hour after CID treatment. The source says: Inducible caspase-9 (iCasp9), which is activated by treatment with a small molecule chemical inducer of dimerization (CID; also known as rapalog, an analog of rapamycin) and leads to subsequent cell death through the intrinsic apoptosis pathway was utilized (FIG. 1A). The safety and efficacy of the iCasp9 transgene and CID have previously been shown in vitro and in vivo in animals and humans (A. Di Stasi, et al. (2011) dx.doi.org/10.1056/NEJMoa1106152; T. Gargett and M. P. Brown (2014) Front. Pharmacol. 5; K. C. Straathof, et al. (2005) Blood 105, 4247, each of which is herein incorporated by this reference). To generate inducible cells, 3T3-J2 fibroblasts (‘J2’) were transduced with lentivirus with a bidirectional expression cassette encoding iCasp9 and GFP genes (#15567 pMSCV-F-del Casp9.IRES.GFP; cloned to a lentivirus plasmid backbone with an SFFV promoter). FACS was used to enrich the infected population for the 15% highest-expression GFP+ cells. […]
After iCasp9-GFP J2 fibroblasts were exposed to CID, iCasp9 dimers were detected by staining with a caspase-9 antibody (FIG. 1C). […] To confirm that CID-triggered caspase-9 activation led to apoptosis, unfixed cells were stained with Annexin V, which binds to an early indicator of apoptosis, and SYTOX, a general marker of cell death, and analyzed by flow cytometry.

In experiment [2] the test system is iCasp9-HDFs. The experiment is described as follows: live imaging of fibroblast removal in the 3D microfluidic co-culture device. The experiment is classed as cell-based, human. As to conditions: 10 nM CID after 7 days of co-culture. On the procedure: More specifically, the molds for the 2-channel microfluidic devices were constructed using stereolithography (Proto Labs). Polydimethylsiloxane (PDMS) was cured at a standard mixing ratio overnight at 60° C. in the mold, and individual devices were cut and plasma-bonded to glass slides. To enhance ECM bonding to PDMS, the surface inside the tissue chamber of the devices was functionalized with 0.01% poly-L-lysine and 1% glutaraldehyde following plasma-activation and washed overnight in DI water. On the day of seeding, devices were soaked in 70% ethanol (EtOH) and dried. Acupuncture needles (300 μm diameter) (Hwato) were blocked in 0.1% (w/v) bovine serum albumin (BSA) (Sigma) in phosphate buffer saline (PBS) for 45 minutes and inserted through the two needle guides. Devices with needles were UV-sterilized for 15 minutes. Once the needles were inserted, a fibrinogen solution containing human umbilical vein endothelial cells (HUVECs) and growth-arrested human dermal fibroblasts (HDFs) were added into the tissue chamber with thrombin. To prepare the cells for seeding, HDFs or iCasp-9 HDFs were growth-arrested with 10 μg/mL mitomycin in FGM-2 for 2.5 hours and thoroughly washed 5 times in FBM. Both HUVECs and HDFs were lifted from culture plates using TrypLE Express (Gibco), centrifuged at 200 g for 4 minutes, and resuspended to a concentration of 20 million cells/mL in EGM-2. […]

Experiment [3] has as its system iCasp9-HLF. In words: HUVEC/iCasp9-HLF tissue constructs implanted in mouse fat pad. As to conditions: 10 mg/kg intraperitoneally on days 5, 7, 9. In kind it is in vivo, mice. On the procedure: The ability to successfully transplant the described tissue constructs was assessed in mice. Specifically, engineered tissue constructs consisting of HUVECs and iCasp9-human lung fibroblasts (iCasp9-HLF, see Example 7) were cultured for 7 days in vitro. Constructs were then implanted into the intraperitoneal mesenteric parametrial fat pad of mice. Five days after implantation, mice were injected with 10 mg/kg CID or vehicle intraperitoneally. Mice were dosed again on days 7 and 9. Constructs were collected from mice on day 10 post-implantation. Explants were cryosectioned and imaged to visualize the presence of cells.

Molecules are shown by their SMILES.

`CC[C@H](C(=O)N1CCCC[C@H]1C(=O)O[C@H](CCc1ccc(OC)c(OC)c1)c1cccc(OCC(=O)NCC(CNC(=O)COc2cccc([C@@H](CCc3ccc(OC)c(OC)c3)OC(=O)[C@@H]3CCCCN3C(=O)[C@@H](CC)c3cc(OC)c(OC)c(OC)c3)c2)CN(C)C)c1)c1cc(OC)c(OC)c(OC)c1` [CID, AP20187]: the “proportion of iCasp9-GFP J2s undergoing apoptosis” value in experiment [1] is on record as “increased in a time-dependent manner”. In addition, in experiment [2], the “time by which most of the fibroblast population was removed” value was at most 10 h and the “time to rapid rounding of iCasp9-HDFs” value was at most 5 h. In addition, the “integration of engineered vessels with host vessels (anti-TER119)” value in experiment [3] (collected day 10) was “demonstrated vessel integration”. Moreover, the “iCasp9-HLF in explants compared to vehicle treated mice” value in experiment [3] (collected day 10 post-implantation) is on record as “reduction”.
